Molecular target: T1, TNIK (Homo sapiens, UniProt Q9UKE5)
T1 construct: purchased Promega V4158
Assay: ADP-Glo Kinase Assay, inhibition activity on TNIK
Assay type: biochemical
Details: read-out: TNIK
Protocol: The inhibition activities on TNIK, IKKε and TBK1 were measured by a luminometer, TNIK/IKKε/TBK1 Kinase Enzyme System (Promega, Ca# V4158; Invitrogen, PR8031B, Promega, Ca# V3991) and ADP-Glo Kinase Assay using ADP-Glo™ Kinase Analysis Kit (Promega, Ca# V9101) and a kinase reaction buffer [40 mM Tris(pH 7.5), 20 mM MgCl2, 0.1 mg/mL BSA] in accordance with the manufacturer's protocol.

T1 sequence (Q9UKE5 1-367 limits assumed): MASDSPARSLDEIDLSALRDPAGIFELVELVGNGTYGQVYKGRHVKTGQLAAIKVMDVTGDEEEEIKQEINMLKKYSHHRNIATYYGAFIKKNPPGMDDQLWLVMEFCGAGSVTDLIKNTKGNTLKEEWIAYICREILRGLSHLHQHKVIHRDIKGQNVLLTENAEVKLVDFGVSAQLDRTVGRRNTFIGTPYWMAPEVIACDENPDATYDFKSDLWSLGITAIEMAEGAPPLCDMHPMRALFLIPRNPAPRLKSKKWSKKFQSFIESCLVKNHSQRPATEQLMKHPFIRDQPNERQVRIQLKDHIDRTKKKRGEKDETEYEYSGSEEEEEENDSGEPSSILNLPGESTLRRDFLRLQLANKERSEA

IC50	SMILES
630 nM	COc1cccc(Nc2ccc(NC(=O)c3ccc(NCCN4CCCCC4)cc3)c3c2CNC3=O)c1 [Example 446, N-(7-((3-methoxyphenyl)amino)-3-oxoisoindolin-4-yl)-4-((2-(piperidin-1-yl)ethyl)amino)benzamide]
550 nM	COc1cccc(Nc2ccc(NC(=O)c3ccc(NCCCN4CCCC4)cc3)c3c2CNC3=O)c1 [Example 447, N-(7-((3-methoxyphenyl)amino)-3-oxoisoindolin-4-yl)-4-((3-(pyrrolidin-1-yl)propyl)amino)benzamide]
620 nM	COc1cccc(Nc2ccc(NC(=O)c3ccc(NCCCN4CCCCC4)cc3)c3c2CNC3=O)c1 [Example 448]
590 nM	Cc1cccc(Nc2ccc(NC(=O)c3ccc(NCCN4CCCC4)cc3)c3c2CNC3=O)c1 [Example 449, N-(3-oxo-7-(m-tolylamino)isoindolin-4-yl)-4-((2-(pyrrolidin-1-yl)ethyl)amino)benzamide]
580 nM	Cc1cccc(Nc2ccc(NC(=O)c3ccc(NCCN4CCCCC4)cc3)c3c2CNC3=O)c1 [Example 450, N-(3-oxo-7-(m-tolylamino)isoindolin-4-yl)-4-((2-(piperidin-1-yl)ethyl)amino)benzamide]
480 nM	Cc1cccc(Nc2ccc(NC(=O)c3ccc(NCCCN4CCCC4)cc3)c3c2CNC3=O)c1 [Example 451, N-(3-oxo-7-(m-tolylamino)isoindolin-4-yl)-4-((3-(pyrrolidin-1-yl)propyl)amino)benzamide]
440 nM	Cc1cccc(Nc2ccc(NC(=O)c3ccc(NCCCN4CCCCC4)cc3)c3c2CNC3=O)c1 [Example 452, N-(3-oxo-7-(m-tolylamino)isoindolin-4-yl)-4-((3-(piperidin-1-yl)propyl)amino)benzamide]
510 nM	O=C(Nc1ccc(Nc2ccccc2Cl)c2c1C(=O)NC2)c1ccc(NCCN2CCCC2)cc1 [Example 453, N-(7-((2-chlorophenyl)amino)-3-oxoisoindolin-4-yl)-4-((2-(pyrrolidin-1-yl)ethyl)amino)benzamide]
530 nM	O=C(Nc1ccc(Nc2ccccc2Cl)c2c1C(=O)NC2)c1ccc(NCCN2CCCCC2)cc1 [Example 454, N-(7-((2-chlorophenyl)amino)-3-oxoisoindolin-4-yl)-4-((2-(piperidin-1-yl)ethyl)amino)benzamide]
200 nM	O=C(Nc1ccc(Nc2cccc(Cl)c2)c2c1C(=O)NC2)c1ccc(NCCN2CCCC2)cc1 [Example 455, N-(7-((3-chlorophenyl)amino)-3-oxoisoindolin-4-yl)-4-((2-(pyrrolidin-1-yl)ethyl)amino)benzamide]
340 nM	O=C(Nc1ccc(Nc2cccc(Cl)c2)c2c1C(=O)NC2)c1ccc(NCCN2CCCCC2)cc1 [Example 456, N-(7-((3-chlorophenyl)amino)-3-oxoisoindolin-4-yl)-4-((2-(piperidin-1-yl)ethyl)amino)benzamide]
150 nM	O=C(Nc1ccc(Nc2cccc(Cl)c2)c2c1C(=O)NC2)c1ccc(NCCCN2CCCC2)cc1 [Example 457, N-(7-((3-chlorophenyl)amino)-3-oxoisoindolin-4-yl)-4-((3-(pyrrolidin-1-yl)propyl)amino)benzamide]
240 nM	O=C(Nc1ccc(Nc2cccc(Cl)c2)c2c1C(=O)NC2)c1ccc(NCCCN2CCCCC2)cc1 [Example 458, N-(7-((3-chlorophenyl)amino)-3-oxoisoindolin-4-yl)-4-((3-(piperidin-1-yl)propyl)amino)benzamide]
210 nM	O=C(Nc1ccc(Nc2ccccc2)c2c1C(=O)NC2)c1ccc(NCCCN2CCCC2=O)cc1 [Example 459, N-(3-oxo-7-(phenylamino)isoindolin-4-yl)-4-((3-(2-oxopyrrolidin-1-yl)propyl)amino)benzamide]
140 nM	CN(C)CCCNc1ccc(C(=O)Nc2ccc(Nc3ccccc3)c3c2C(=O)NC3)cc1 [Example 460, 4-((3-(Dimethylamino)propyl)amino)-N-(3-oxo-7-(phenylamino)isoindolin-4-yl)benzamide]
380 nM	O=C(Nc1ccc(Nc2ccccc2)c2c1C(=O)NC2)c1ccc(NCCCN2CCOCC2)cc1 [Example 461, 4-((3-Morpholinopropyl)amino)-N-(3-oxo-7-(phenylamino)isoindolin-4-yl)benzamide]
290 nM	O=C(Nc1ccc(Nc2ccccc2)c2c1C(=O)NC2)c1ccc(NCCCN2CCCC2)cc1 [Example 462, N-(3-oxo-7-(phenylamino)isoindolin-4-yl)-4-((3-(pyrrolidin-1-yl)propyl)amino)benzamide]
370 nM	CN1CCN(CCCNc2ccc(C(=O)Nc3ccc(Nc4ccccc4)c4c3C(=O)NC4)cc2)CC1 [Example 463, 4-((3-(4-Methylpiperazin-1-yl)propyl)amino)-N-(3-oxo-7-(phenylamino)isoindolin-4-yl)benzamide]
74 nM	O=C(Nc1ccc(Nc2ccccc2)c2c1C(=O)NC2)c1ccc(NCCCO)cc1 [Example 464, 4-((3-Hydroxypropyl)amino)-N-(3-oxo-7-(phenylamino)isoindolin-4-yl)benzamide]
> 20000 nM	O=C(Nc1ccc(Nc2cc(C(F)(F)F)cc(C(F)(F)F)c2)c2c1C(=O)NC2)c1ccc(NCCN2CCCC2)cc1 [Example 465, N-(7-((3,5-bis(trifluoromethyl)phenyl)amino)-3-oxoisoindolin-4-yl)-4-((2-(pyrrolidin-1-yl)ethyl)amino)benzamide]
14000 nM	O=C(Nc1ccc(Nc2cc(C(F)(F)F)cc(C(F)(F)F)c2)c2c1C(=O)NC2)c1ccc(NCCCN2CCCC2)cc1 [Example 466, N-(7-((3,5-bis(trifluoromethyl)phenyl)amino)-3-oxoisoindolin-4-yl)-4-((3-(pyrrolidin-1-yl)propyl)amino)benzamide]
> 20000 nM	O=C(Nc1ccc(Nc2cc(C(F)(F)F)cc(C(F)(F)F)c2)c2c1C(=O)NC2)c1ccc(NCCN2CCCCC2)cc1 [Example 467, N-(7-((3,5-bis(trifluoromethyl)phenyl)amino)-3-oxoisoindolin-4-yl)-4-((2-(piperidin-1-yl)ethyl)amino)benzamide]
17100 nM	O=C(Nc1ccc(Nc2cc(C(F)(F)F)cc(C(F)(F)F)c2)c2c1C(=O)NC2)c1ccc(NCCCN2CCCCC2)cc1 [Example 468, N-(7-((3,5-bis(trifluoromethyl)phenyl)amino)-3-oxoisoindolin-4-yl)-4-((3-(piperidin-1-yl)propyl)amino)benzamide]
370 nM	Cc1cccc(Nc2ccc(NC(=O)c3ccc(NCCN4CCCC4)cc3)c3c2CNC3=O)c1C [Example 469, N-(7-((2,3-dimethylphenyl)amino)-3-oxoisoindolin-4-yl)-4-((2-(pyrrolidin-1-yl)ethyl)amino)benzamide]
470 nM	Cc1cccc(Nc2ccc(NC(=O)c3ccc(NCCCN4CCCC4)cc3)c3c2CNC3=O)c1C [Example 470, N-(7-((2,3-dimethylphenyl)amino)-3-oxoisoindolin-4-yl)-4-((3-(pyrrolidin-1-yl)propyl)amino)benzamide]
610 nM	Cc1cccc(Nc2ccc(NC(=O)c3ccc(NCCN4CCCCC4)cc3)c3c2CNC3=O)c1C [Example 471, N-(7-((2,3-dimethylphenyl)amino)-3-oxoisoindolin-4-yl)-4-((2-(piperidin-1-yl)ethyl)amino)benzamide]
410 nM	Cc1cccc(Nc2ccc(NC(=O)c3ccc(NCCCN4CCCCC4)cc3)c3c2CNC3=O)c1C [Example 472, N-(7-((2,3-dimethylphenyl)amino)-3-oxoisoindolin-4-yl)-4-((3-(piperidin-1-yl)propyl)amino)benzamide]

— patent publication US9856216B2, “Compounds as TNIK, IKKε and TBK1 inhibitors and pharmaceutical composition comprising same” (GREEN CROSS CORPORATION, priority 2015, dated 2018)
